Measured values reported in the supplement of paper PMC5908809.

Assays:
IMC-1 (IL-2 20 ng/mL) [1] = assay: percent inhibition of viability; higher = more inhibition; details: 72 h
[2] = test system: normal primary NK cells, pool 3 (3 donors) (IL-2 2.5 ng/mL); assay: as above; details: 72 h
[3] = test system: normal primary NK cells, pool 1 (3 donors) (IL-2 2.5 ng/mL); assay: as above; details: 72 h
KHYG-1 (IL-2 2.5 ng/mL) [4] = assay: as above; details: 72 h
NK-YS (IL-2 2.5 ng/mL) [5] = assay: as above; details: 72 h
[6] = test system: normal primary NK cells, pool 1 (3 donors), resting (IL-2 0 ng/mL); assay: as above; details: 72 h
YT (IL-2 2.5 ng/mL) [7] = assay: as above; details: 72 h
NKL (IL-2 2.5 ng/mL) [8] = assay: as above; details: 72 h
NK-92 (IL-2 2.5 ng/mL) [9] = assay: as above; details: 72 h
SNK-6 (IL-2 2.5 ng/mL) [10] = assay: as above; details: 72 h
DERL-7 (IL-2 2.5 ng/mL) [11] = assay: as above; details: 72 h
[12] = test system: normal primary NK cells, pool 2 (3 donors) (IL-2 2.5 ng/mL); assay: as above; details: 72 h
KAI3 (IL-2 2.5 ng/mL) [13] = assay: as above; details: 72 h
[14] = test system: normal NK cells expanded with K562-aAPC; assay: as above; details: 72 h, IL-2 2.5 ng/mL
Experimental: (§1)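 Drug sensitivity and resistance testing on K562-aAPC-expanded normal NK cells: 5 concentrations (10-fold steps over a 10,000-fold range), 72 h at 37 °C, viability by CellTiter-Glo normalised to DMSO and benzethonium chloride controls; DSS from the fitted curve.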

[15] = test system: normal NK cells expanded with K562-aAPC; assay: drug sensitivity score (DSS) (DSS units); higher = more sensitive; extreme values may be limits of the assay; details: 72 h; IL-2 2.5 ng/mL
Experimental: as §1

IMC-1 (IL-2 20 ng/mL) [16] = assay: as above; details: 72 h
[17] = test system: normal primary NK cells, pool 3 (3 donors) (IL-2 2.5 ng/mL); assay: as above; details: 72 h
[18] = test system: normal primary NK cells, pool 1 (3 donors) (IL-2 2.5 ng/mL); assay: as above; details: 72 h
KHYG-1 (IL-2 2.5 ng/mL) [19] = assay: as above; details: 72 h
NK-YS (IL-2 2.5 ng/mL) [20] = assay: as above; details: 72 h
[21] = test system: normal primary NK cells, pool 1 (3 donors), resting (IL-2 0 ng/mL); assay: as above; details: 72 h
YT (IL-2 2.5 ng/mL) [22] = assay: as above; details: 72 h
NKL (IL-2 2.5 ng/mL) [23] = assay: as above; details: 72 h
NK-92 (IL-2 2.5 ng/mL) [24] = assay: as above; details: 72 h
SNK-6 (IL-2 2.5 ng/mL) [25] = assay: as above; details: 72 h
DERL-7 (IL-2 2.5 ng/mL) [26] = assay: as above; details: 72 h
[27] = test system: normal primary NK cells, pool 2 (3 donors) (IL-2 2.5 ng/mL); assay: as above; details: 72 h
KAI3 (IL-2 2.5 ng/mL) [28] = assay: as above; details: 72 h

N#CC(c1ccnc(OCc2ccc(CN3CCOCC3)cc2)n1)c1nc2ccccc2s1 (stereo not drawn) [Bentamapimod] (max concentration tested 10000 nM)
percent inhibition of viability [%]
Details | 1 nM | 10 nM | 100 nM | 1000 nM | 10000 nM
DERL-7 (IL-2 2.5 ng/mL) [11] | -1.64 | -1.25 | -0.32 | 14.8 | 51.5
IMC-1 (IL-2 20 ng/mL) [1] | 0.67 | -4.76 | 0.93 | 6.64 | 58.2
KAI3 (IL-2 2.5 ng/mL) [13] | -1.88 | -7.11 | -2.63 | 14.7 | 40.9
KHYG-1 (IL-2 2.5 ng/mL) [4] | -0.61 | -1.53 | 4.6 | 13.5 | 64
NK-92 (IL-2 2.5 ng/mL) [9] | -0.51 | -7.45 | -6.19 | 10.8 | 47.6
NK-YS (IL-2 2.5 ng/mL) [5] | -3.99 | -3.72 | 3.63 | 20.3 | 47.6
NKL (IL-2 2.5 ng/mL) [8] | -15.9 | -16.8 | -9.05 | 13.2 | 71.2
SNK-6 (IL-2 2.5 ng/mL) [10] | 8.11 | -3.58 | -13.1 | -25.4 | 8.78
YT (IL-2 2.5 ng/mL) [7] | -4.27 | -0.56 | 3.3 | 13.5 | 56.8
[2] | -6.62 | -9.78 | -6.35 | -8.64 | 19.9
[3] | -3.1 | -0.66 | -15.6 | -7.74 | 4.64
[6] | 3.62 | 7.45 | -14.2 | -14.4 | -16.2
[12] | -16.9 | -6.81 | -3.2 | -3.66 | 38.2
[14] | 1.11 | -7.13 | 0.02 | 9.12 | 35.7

Details | drug sensitivity score
DERL-7 (IL-2 2.5 ng/mL) [26] | 4.97
IMC-1 (IL-2 20 ng/mL) [16] | 4.25
KAI3 (IL-2 2.5 ng/mL) [28] | 4.12
KHYG-1 (IL-2 2.5 ng/mL) [19] | 5.69
NK-92 (IL-2 2.5 ng/mL) [24] | 4.21
NK-YS (IL-2 2.5 ng/mL) [20] | 4.74
NKL (IL-2 2.5 ng/mL) [23] | 6.1
SNK-6 (IL-2 2.5 ng/mL) [25] | 0
YT (IL-2 2.5 ng/mL) [22] | 5.2
[15] | 3.1
[17] | 0.34
[18] | 0
[21] | 0
[27] | 1.6

COC(=O)C[C@](O)(CCCC(C)(C)O)C(=O)O[C@@H]1C(OC)=C[C@]23CCCN2CCc2cc4c(cc2[C@H]13)OCO4 [Omacetaxine] (max concentration tested 10000 nM)
percent inhibition of viability [%]
Details | 1 nM | 10 nM | 100 nM | 1000 nM | 10000 nM
DERL-7 (IL-2 2.5 ng/mL) [11] | 5.07 | 60.5 | 100 | 101 | 101
IMC-1 (IL-2 20 ng/mL) [1] | -8.96 | -3.07 | 99.7 | 101 | 101
KAI3 (IL-2 2.5 ng/mL) [13] | 29.6 | 46.7 | 101 | 105 | 106
KHYG-1 (IL-2 2.5 ng/mL) [4] | -7.86 | -9.89 | 102 | 106 | 107
NK-92 (IL-2 2.5 ng/mL) [9] | 1.68 | 7.27 | 100 | 106 | 108
NK-YS (IL-2 2.5 ng/mL) [5] | 1.36 | 1.43 | 100 | 105 | 108
NKL (IL-2 2.5 ng/mL) [8] | 3.97 | 2.74 | 99.8 | 107 | 108
SNK-6 (IL-2 2.5 ng/mL) [10] | 0.3 | 72.3 | 95.2 | 95.4 | 99.9
YT (IL-2 2.5 ng/mL) [7] | -7.92 | 19.8 | 98.2 | 107 | 108
[2] | 9.72 | 46.5 | 96.3 | 97.1 | 99.5
[3] | 1.78 | 69 | 96.7 | 96.5 | 99
[6] | 39.6 | 89.8 | 90.3 | 89.8 | 91.4
[12] | 4.96 | 73.8 | 93.2 | 93.8 | 95.3
[14] | 3.7 | 16 | 93.1 | 101 | 101

Details | drug sensitivity score
DERL-7 (IL-2 2.5 ng/mL) [26] | 37.8
IMC-1 (IL-2 20 ng/mL) [16] | 30.1
KAI3 (IL-2 2.5 ng/mL) [28] | 37.1
KHYG-1 (IL-2 2.5 ng/mL) [19] | 29.9
NK-92 (IL-2 2.5 ng/mL) [24] | 31.6
NK-YS (IL-2 2.5 ng/mL) [20] | 30.6
NKL (IL-2 2.5 ng/mL) [23] | 30.8
SNK-6 (IL-2 2.5 ng/mL) [25] | 38.8
YT (IL-2 2.5 ng/mL) [22] | 33.7
[15] | 31.6
[17] | 35.4
[18] | 38.4
[21] | 43.6
[27] | 38.4
